Like-named read-outs stand apart in the source and are kept apart here.
Experiments:
[1] = test system: SK-N-FI neuroblastoma cells; test: cells; settings: for cytotoxicity at 0.1 µg/mL / cytotoxicity at 1 µg/mL: 120 h
Excerpt: (§1) Cell lines tested included: Glioblastoma cell lines VA-MG-SL and U-373-MG, neuroblastoma cell lines SK-N-AS, SK-N-FI and VA-N-BR, and two primitive neuroectodermal tumor cell lines SK-N-LO and SK-PN-DW at different concentrations. All cell lines were personally established from patients and cultured except U-373-MG (obtained from the American Type Culture Collection, Rockville, […]., USA). The cell lines SK-N-AS, SK-N-FI, SK-N-LO and SK-PN-DW have been reported in several publications and are believed to be representative of their respective lineages.
(§2) Stock cells in 25 cm^2 flasks were incubated in Dubelco's modified Eagle's medium (Sigma, St. Louis, Mo.) containing 10% fetal bovine serum at 37° C. and 5% CO2 in air for 5 days. Media was renewed on the sixth day and on the seventh day the cells were detached into a single cell suspension with trypsin EDTA, counted and aliquots plated at 3000 to 5000 cells in 0.1 ml fresh media in separate wells of a 96-well microliter plate (Becton-Dickinson Labware, Lincoln Park, N.J.). […] Six replicate wells were used in every experiment as controls and for each test concentration. Each experiment was repeated three separate times. Viability of the cell lines 5 days after exposure to drugs was determined by the MTT assay following published procedures.
(§3) Cytocidal activity was defined when the number of cells or the MTT surrogate optical density value was less than the initial inoculum. This is usually the case when ≥80% toxicity is recorded under these in vitro conditions.
(§4) Differences were considered to be statistically significant for a p-value of 0.05 or less.

[2] = test system: U-373-MG glioblastoma cells; test: cells; settings: Homo sapiens, U373 MG; for cytotoxicity at 0.1 µg/mL / cytotoxicity at 1 µg/mL: 120 h
Excerpt: as §1, §2, §3, §4

[3] = test system: VA-N-BR neuroblastoma cells; test: cells; settings: Neuroblastoma cell; for cytotoxicity at 0.1 µg/mL / cytotoxicity at 1 µg/mL: Homo sapiens, 120 h
Excerpt: as §1, §2, §3, §4

[4] = test system: SK-N-LO primitive neuroectodermal tumor cells; test: MTT cytotoxicity, SK-N-LO; settings: for cytotoxicity at 0.01 µg/mL / cytotoxicity at 0.1 µg/mL / cytotoxicity at 1 µg/mL: Homo sapiens, 120 h
Excerpt: as §1, §2, §3, §4

SK-N-AS cells [5] = test: Sensitivity to a second dose of taxol at different times after a first dose (FIG. 1); assay type: cell-based, human
SK-N-AS cells [6] = test: Cytopathologic changes after taxol exposure; assay type: cell-based, human; settings: 1 μg/ml for 1 hour
Excerpt: Apoptosis was recognized as acute change in the cells. These included chromatin clumping at the periphery of the nucleus, loss of cytoplasmic detail and finally apoptotic bodies, either readily detached or floating with several being phagocytosed by surrounding cells.

[7] = Study B: taxol tissue levels after three IP injections at 4 day intervals; assay type: in vivo, nude mice; settings: seven days after third injection
[8] = test system: SK-N-AS neuroblastoma tumor in nude mice; assay type: in vivo
Excerpt: Five nude mice were maintained in each cage with a fiberglass bonnet in a clean isolation room. All cages and food were sterilized prior to use. Female nude mice were inoculated subcutaneously with 3×10^6 human neuroblastoma (SK-N-AS) tumor cells. Between 8-16 days, tumor growth was evident and measured.

clinical = test: clinical; parameters: species or system human patients; settings: human, in vivo, iv
Excerpt: (§5) Characteristics of the group of twenty were: male (5); female (15); median age 44 (17-81); ECOG-PS 1 (0-3). All were previously treated with chemotherapy and radiation for cancers of the breast (5), ovarian (2), brain (3), prostate (1), head and neck (4), bone (2), leiomyosarcoma (2), and melanoma (1).

various cancers = test: Human tumor responses, Q4D schedule; assay type: in vivo, human patients
Method: From the results obtained from the in vitro and the animal studies, responses of various human subjects to the Q4d×3 (21 days×3) protocol at dosages levels of about 60 mg/m^2 were evaluated. It should be understood that these patients were deemed "salvage" cases almost all of whom had not responded to conventional treatment. All were otherwise thought to be beyond approved therapeutic regimens. Thus, the results and evaluation are anecdotal in nature and are not part of a controlled and statistical valid clinical trial.
as §5

[9] = cited from earlier work
[10] = test system: ovarian and breast cancers; settings: background statement; cited from earlier work
[11] = read-out: concentration at which cell line was affected

CC(=O)O[C@H]1C(=O)[C@@]2(C)[C@H]([C@H](OC(=O)c3ccccc3)[C@]3(O)C[C@H](OC(=O)[C@H](O)[C@@H](NC(=O)c4ccccc4)c4ccccc4)C(C)=C1C3(C)C)[C@]1(OC(C)=O)CO[C@@H]1C[C@@H]2O [taxol]
resilience of cell line to taxol (least/most resilient) ([1]; 0.01-1.0 μg/ml): the most
cytotoxicity at 0.1 µg/mL ([1]; Homo sapiens, read-out: Taxol toxicity, SK-N-FI, 0.1 μg/ml x 1 h, 5 days after exposure): 0%
cytotoxicity at 0.1 µg/mL ([1]; Homo sapiens, read-out: Taxol toxicity, SK-N-FI, 0.1 μg/ml x 4 h, 5 days after exposure): 0%
cytotoxicity at 0.1 µg/mL ([1]; Homo sapiens, read-out: Taxol toxicity, SK-N-FI, 0.1 μg/ml x 24 h, 5 days after exposure, p < 0.05 vs 1 h): 14%
cytotoxicity at 1 µg/mL ([1]; Homo sapiens, read-out: Taxol toxicity, SK-N-FI, 1.0 μg/ml x 1 h, 5 days after exposure): 0%
cytotoxicity at 1 µg/mL ([1]; Homo sapiens, read-out: Taxol toxicity, SK-N-FI, 1.0 μg/ml x 4 h, 5 days after exposure): 58%
cytotoxicity at 1 µg/mL ([1]; Homo sapiens, read-out: Taxol toxicity, SK-N-FI, 1.0 μg/ml x 24 h, 5 days after exposure, p < 0.05 vs 1 h): 76%
minimal effective concentration ([1]; Homo sapiens, read-out: concentration at which cell line was affected): ≥ 0.1 µg/mL
cytotoxicity at 0.1 µg/mL ([2]; read-out: Taxol toxicity, U-373-MG, 0.1 μg/ml x 1 h, 5 days after exposure): 46%
cytotoxicity at 0.1 µg/mL ([2]; read-out: Taxol toxicity, U-373-MG, 0.1 μg/ml x 4 h, 5 days after exposure): 56%
cytotoxicity at 0.1 µg/mL ([2]; read-out: Taxol toxicity, U-373-MG, 0.1 μg/ml x 24 h, 5 days after exposure): 57%
cytotoxicity at 1 µg/mL ([2]; read-out: Taxol toxicity, U-373-MG, 1.0 μg/ml x 1 h, 5 days after exposure): 74%
cytotoxicity at 1 µg/mL ([2]; read-out: Taxol toxicity, U-373-MG, 1.0 μg/ml x 4 h, 5 days after exposure): 79%
cytotoxicity at 1 µg/mL ([2]; read-out: Taxol toxicity, U-373-MG, 1.0 μg/ml x 24 h, 5 days after exposure): 79%
minimal effective concentration [2, 11]: ≥ 0.1 µg/mL
cytotoxicity at 0.1 µg/mL ([3]; read-out: Taxol toxicity, VA-N-BR, 0.1 μg/ml x 1 h, 5 days after exposure): 61%
cytotoxicity at 0.1 µg/mL ([3]; read-out: Taxol toxicity, VA-N-BR, 0.1 μg/ml x 4 h, 5 days after exposure): 66%
cytotoxicity at 0.1 µg/mL ([3]; read-out: Taxol toxicity, VA-N-BR, 0.1 μg/ml x 24 h, 5 days after exposure): 68%
cytotoxicity at 1 µg/mL ([3]; read-out: Taxol toxicity, VA-N-BR, 1.0 μg/ml x 1 h, 5 days after exposure): 87%
cytotoxicity at 1 µg/mL ([3]; read-out: Taxol toxicity, VA-N-BR, 1.0 μg/ml x 4 h, 5 days after exposure): 84%
cytotoxicity at 1 µg/mL ([3]; read-out: Taxol toxicity, VA-N-BR, 1.0 μg/ml x 24 h, 5 days after exposure): 83%
minimal effective concentration [3, 11]: ≥ 0.1 µg/mL
cytotoxicity at 0.01 µg/mL ([4]; read-out: Taxol toxicity, SK-N-LO, 0.01 μg/ml x 1 h, 5 days after exposure): 0%
cytotoxicity at 0.01 µg/mL ([4]; read-out: Taxol toxicity, SK-N-LO, 0.01 μg/ml x 4 h, 5 days after exposure): 0%
cytotoxicity at 0.01 µg/mL ([4]; read-out: Taxol toxicity, SK-N-LO, 0.01 μg/ml x 24 h, 5 days after exposure, p < 0.05 vs 1 h): 17%
cytotoxicity at 0.1 µg/mL ([4]; read-out: Taxol toxicity, SK-N-LO, 0.1 μg/ml x 1 h, 5 days after exposure): 43%
cytotoxicity at 0.1 µg/mL ([4]; read-out: Taxol toxicity, SK-N-LO, 0.1 μg/ml x 4 h, 5 days after exposure): 56%
cytotoxicity at 0.1 µg/mL ([4]; read-out: Taxol toxicity, SK-N-LO, 0.1 μg/ml x 24 h, 5 days after exposure): 47%
cytotoxicity at 1 µg/mL ([4]; read-out: Taxol toxicity, SK-N-LO, 1.0 μg/ml x 1 h, 5 days after exposure): 54%
cytotoxicity at 1 µg/mL ([4]; read-out: Taxol toxicity, SK-N-LO, 1.0 μg/ml x 4 h, 5 days after exposure): 58%
cytotoxicity at 1 µg/mL ([4]; read-out: Taxol toxicity, SK-N-LO, 1.0 μg/ml x 24 h, 5 days after exposure): 57%
cytotoxicity compared with a 1 hour exposure ([4]; SK-N-LO, 0.01 μg/ml, 24 hour): enhanced cytotoxicity
toxicity in words ([4]; SK-N-LO, 0.01 μg/ml, 24 hour exposure): toxic
time to revertant taxol susceptibility (SK-N-AS cells [5]; after initial exposure, concluded): four
sensitivity to second dose of taxol (SK-N-AS cells [5]; second dose 24 to 120 hours after first, two experiments): rebounded at the fourth day and continued to the fifth day to the original sensitivity levels
time of abnormal mitosis and polyploidy (SK-N-AS cells [6]): 36 to 72 h
time of apoptosis (SK-N-AS cells [6]): 6 to 24 h
cells altered by taxol (SK-N-AS cells [6]; at 24, 48 and 72 hours): Approximately 30%
taxol in the colon [7]: Substantial amounts
taxol in tumor and organs [7]: detectable in tumor and organs
antitumor activity in words ([8]; 10 mg/kg IP Q4D×3): antitumor activity ranging from tumor growth inhibition to tumor lysis
variance in response to drug therapy ([8]; 10 mg/kg IP Q4D×3): ranging from tumor lysis to slowed growth
mice with delayed tumor growth ([8]; Study C, 10 mg/kg IP Q4D×3): 4/5
mice with tumor regression ([8]; Study C, 10 mg/kg IP Q4D×3): 1/5
tumor sizes or weight gain, day 1 vs day 14 ([8]; Treated Group B, 10 mg/kg IP Q4D×3): no significant difference in tumor sizes or weight gain
weight gain between day 1 and day 14 ([8]; mouse, in vivo): no significant weight gain
Wt, Day #1, MEAN ([8]; mouse, in vivo, ip, 10 mg/kg): 26.6
Wt, Day #14, MEAN ([8]; mouse, in vivo, ip, 10 mg/kg): 28.8
Tumor area, Day #1, MEAN ([8]; treated, 10 mg/kg IP Q4D×3, S.E. ±5.1): 60.3
Tumor area, Day #5, MEAN ([8]; treated, 10 mg/kg IP Q4D×3, S.E. ±21.5): 93
Tumor area, Day #9, MEAN ([8]; treated, 10 mg/kg IP Q4D×3, S.E. ±23.6): 105.6
Tumor area, Day #14, MEAN ([8]; treated, 10 mg/kg IP Q4D×3, S.E. ±54.8): 142
Kp (clinical): 0.01
peripheral blood CMAX (clinical): 1400 ng/mL
Cmax (clinical; 0-40 ng/ml CMAX (so in the source)): < 40 ng/mL
half-life (clinical; T1/2 α): 15 min
half-life (clinical; distributive phase T1/2 α): 7 to 20 min
Cmax (clinical; peripheral blood CMAX): 1240 ng/mL
antitumor activity in words (various cancers; Q4D schedule, advanced disease patients with varied histologies): has antitumor activity in advanced disease patients with varied histologies
effectiveness vs Q21 day schedule (various cancers; Q4D, previously untreated patients or in combination/sequence, interpretation): equal to, or more effective than, the Q21 day schedule
partial response (various cancers; all): four
partial response (various cancers; brain): 1 instances
complete response (various cancers; brain tumor): one
partial response (various cancers; breast): 2 instances
partial response (various cancers; head and neck): 1 instances
effectiveness in words (various cancers; salvage patients, limited tests): demonstrated effectiveness
maximum tolerated dose ([9]; Brown et al, six-hour infusion every twenty-one days, no premedication): 275 mg/m^2
incidence of hypersensitivity reactions ([9]; Brown et al): dependent upon the schedule over which the taxol was administered
hypersensitivity reactions ([9]; Kris et al, three hour infusion, 15-200 mg/m^2): severity and unpredictability of hypersensitivity reactions
antitumor activity in words [10]: among the most active single agent for ovarian and breast cancers

— US5696153A, “Therapeutic regimen for treating patients” (priority 1996, dated 1997)
